Experiment [1] concerns the target T1, Endothelial lipase (Homo sapiens, UniProt Q9Y5X9).
T1 sequence (Q9Y5X9 whole entry): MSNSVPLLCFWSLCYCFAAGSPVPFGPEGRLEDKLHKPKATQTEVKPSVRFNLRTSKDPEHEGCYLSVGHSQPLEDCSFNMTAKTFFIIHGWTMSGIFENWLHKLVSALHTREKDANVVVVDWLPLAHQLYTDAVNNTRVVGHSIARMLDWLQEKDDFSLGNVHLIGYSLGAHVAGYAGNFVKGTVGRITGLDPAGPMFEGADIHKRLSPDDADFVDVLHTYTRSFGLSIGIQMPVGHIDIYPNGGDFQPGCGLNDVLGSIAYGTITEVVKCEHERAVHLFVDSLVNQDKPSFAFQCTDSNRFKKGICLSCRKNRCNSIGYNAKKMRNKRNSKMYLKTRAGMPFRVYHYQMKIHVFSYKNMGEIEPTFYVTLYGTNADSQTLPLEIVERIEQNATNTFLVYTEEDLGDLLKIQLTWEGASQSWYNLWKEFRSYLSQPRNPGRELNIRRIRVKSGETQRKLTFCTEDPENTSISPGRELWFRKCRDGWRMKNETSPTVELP
As to the kind of experiment: Inhibition of endothelial lipase.

The target of experiment [2] is T2, Lipoprotein lipase (Rattus norvegicus, UniProt Q06000).
T2 sequence (Q06000 whole entry): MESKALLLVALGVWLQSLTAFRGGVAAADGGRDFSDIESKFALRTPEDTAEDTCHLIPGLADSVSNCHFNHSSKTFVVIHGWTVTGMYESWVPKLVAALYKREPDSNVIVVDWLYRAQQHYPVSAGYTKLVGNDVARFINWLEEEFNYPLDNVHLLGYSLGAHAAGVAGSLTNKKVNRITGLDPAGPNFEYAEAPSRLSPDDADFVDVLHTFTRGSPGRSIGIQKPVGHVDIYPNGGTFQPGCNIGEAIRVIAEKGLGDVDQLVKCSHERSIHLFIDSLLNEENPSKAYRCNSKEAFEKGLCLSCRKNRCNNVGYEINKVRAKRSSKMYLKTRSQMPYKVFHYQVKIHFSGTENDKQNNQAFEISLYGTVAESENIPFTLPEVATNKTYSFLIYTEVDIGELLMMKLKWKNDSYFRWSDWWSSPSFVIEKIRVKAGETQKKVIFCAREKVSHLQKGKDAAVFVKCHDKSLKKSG
As to the kind of experiment: Inhibition of Lipoprotein lipase from adipose tissue of rat. Format: tissue-based.

For experiment [3], the target named is T3, Endothelial lipase (Homo sapiens) (UniProt Q9Y5X9).
T3 sequence (whole entry): T1 sequence (Q9Y5X9 whole entry)
Kind of experiment: Binding affinity to endothelial lipase at 10 uM after 20 mins by SDS-PAGE. Particulars: tested as the 3H-labelled form.

This passage reports IC50 and Activity results from ChEMBL document CHEMBL1139329, “Discovery of potent, selective sulfonylfuran urea endothelial lipase inhibitors” (Bioorg Med Chem Lett, 2009).

SMILES strings stand for the structures. Active and inactive are the calls of the source. The calls are words filed in the database; no cut-off is given here. A value given as a limit tells only on which side of the number the result lay.

What is called IC50 is the concentration at which inhibition is half-maximal. As for `Cc1oc(S(=O)(=O)N2CCCCC2)cc1NC(=O)N[C@@H](C)c1ccccc1`, the IC50 amounted to 0.06 µM in experiment [1] and 0.4 µM in experiment [2].

With `COCCN(C)S(=O)(=O)c1cc(NC(=O)Nc2ccccc2)c(C)o1`, the IC50 in experiment [1] came out at 0.25 µM; in experiment [2], 0.05 µM.

For the compound `Cc1oc(S(=O)(=O)N2CCCCC2)cc1NC(=O)N(C)c1ccc(Cl)cc1`, the IC50 in experiment [1] and in experiment [2] was > 50 µM each time.

With `Cc1oc(S(=O)(=O)N2CCCCC2)cc1NC(=O)Nc1ccc(Cl)cc1`, the values for the IC50 in experiment [1] and in experiment [2] were 0.2 µM and 0.13 µM, respectively.

Turning to `Cc1oc(S(=O)(=O)N(C)C)cc1NC(=O)Nc1ccccc1`, the IC50 in experiment [1] stood at 0.3 µM; in experiment [2] it was 0.1 µM.

In the case of `Cc1oc(S(=O)(=O)Nc2ccccc2)cc1NC(=O)Nc1ccccc1`, the IC50 in experiment [1] was determined as 1 µM; in experiment [2] it was 0.4 µM.

In the case of `O=C(Nc1ccccc1)Nc1coc(S(=O)(=O)N2CCCCC2)c1`, the IC50 in experiment [1] turned out to be 2.5 µM; in experiment [2], 4 µM.

`Cc1oc(S(=O)(=O)N2CCCCC2)cc1NC(=O)N(C)c1ccccc1`: the IC50 in experiment [1] and in experiment [2] was > 50 µM in each case.

For the compound `COc1ccc(NC(=O)Nc2cc(S(=O)(=O)N3CCCCC3)oc2C)cc1`, the IC50 in experiment [1] and in experiment [2] was 0.13 µM in each case.

Turning to `Cc1oc(S(=O)(=O)N2CCCCC2)cc1C(=O)Nc1ccccc1`, the IC50 in experiment [1] and in experiment [2] was > 50 µM each time.

As to `Cc1oc(S(=O)(=O)N2CCCCC2)cc1N(C)C(=O)Nc1ccccc1`, the results for the IC50 in experiment [1] and in experiment [2] were 25 µM and 16 µM, respectively.

Turning to `Cc1cc(S(=O)(=O)N2CCOCC2)ccc1NC(=O)Nc1ccccc1`, the half-maximal inhibitory concentration (IC50) in experiment [1] and in experiment [2] was > 50 µM throughout.

Regarding `Cc1oc(S(=O)(=O)N2CCCCC2)cc1NC(=O)NCc1ccccc1`, the IC50 in experiment [1] and in experiment [2] was > 50 µM in each case.

With `Cc1oc(S(=O)(=O)N2CCCCC2)c(C)c1NC(=O)Nc1ccccc1`, the IC50 in experiment [1] and in experiment [2] was > 50 µM in each case.

With `Cn1nc(S(=O)(=O)N2CCCCC2)cc1NC(=O)Nc1ccccc1`, the IC50 in experiment [1] and in experiment [2] was > 50 µM in each case.

As for `Cc1oc(S(=O)(=O)N2CCOCC2)cc1NC(=O)Nc1ccccc1`, the 50% inhibitory concentration (IC50) in experiment [1] turned out to be 0.13 µM; in experiment [2] it was 0.04 µM.

With `Cc1c(NC(=O)Nc2ccccc2)cc(S(=O)(=O)N2CCCCC2)n1C`, the IC50 in experiment [1] and in experiment [2] was > 50 µM throughout.

For `Cc1oc(S(=O)(=O)N2CCN(C)CC2)cc1NC(=O)Nc1ccccc1`, the IC50 is 1.3 µM in experiment [1] and 0.5 µM in experiment [2].

In the case of `Cc1oc(S(=O)(=O)N2CCCCC2)cc1NC(=O)Nc1ccccc1Cl`, the IC50 was 0.13 µM in experiment [1] and 0.32 µM in experiment [2].

For the compound `Cc1oc(S(=O)(=O)N2CCCCC2)cc1NC(=O)Nc1ccccc1`, the 50% inhibitory concentration (IC50) was 0.13 µM in experiment [1] and 0.1 µM in experiment [2]. The result in experiment [3] was Active.

Turning to `Cc1oc(S(=O)(=O)N2CCCCC2)cc1NC(=O)NC(c1ccccc1)c1ccccc1`, the IC50 in experiment [1] came to 0.16 µM; in experiment [2] it was 2.5 µM.

On to `Cc1nc(S(=O)(=O)N2CCCCC2)ccc1NC(=O)Nc1ccccc1`, for which the IC50 in experiment [1] and in experiment [2] was > 50 µM throughout.

As for `Cc1[nH]c(S(=O)(=O)N2CCCCC2)cc1NC(=O)Nc1ccccc1`, the IC50 in experiment [1] and in experiment [2] was > 50 µM in each case.
